Reference: patent US8575197B2, “Pyrolinone derivative and pharmaceutical composition comprising the same” (Shionogi & Co., Ltd., priority 2008, dated 2013)

These compounds were tested against human P2X3 receptor (Homo sapiens (Human), UniProt P56373) (assay: P2X3 receptor inhibition, ATP-evoked Fluo-3 calcium fluorescence (FDSS 3000)). Settings: C6BU-1 cell transfected with human P2X3 receptor gene; ATP-evoked Fluo-3 fluorescence.
Format: cell-based
In short: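 C6BU-1 cells stably transfected with human P2X3, loaded with 4 μM Fluo-3-AM for 1 h at 37 °C in HEPES buffer pH 7.5 with probenecid. Compound added 5 min before 40 nM ATP solution; fluorescence followed 3 min. IC50 from ratio of peak post-ATP to baseline fluorescence.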

Sequence of human P2X3 receptor (P56373 whole entry): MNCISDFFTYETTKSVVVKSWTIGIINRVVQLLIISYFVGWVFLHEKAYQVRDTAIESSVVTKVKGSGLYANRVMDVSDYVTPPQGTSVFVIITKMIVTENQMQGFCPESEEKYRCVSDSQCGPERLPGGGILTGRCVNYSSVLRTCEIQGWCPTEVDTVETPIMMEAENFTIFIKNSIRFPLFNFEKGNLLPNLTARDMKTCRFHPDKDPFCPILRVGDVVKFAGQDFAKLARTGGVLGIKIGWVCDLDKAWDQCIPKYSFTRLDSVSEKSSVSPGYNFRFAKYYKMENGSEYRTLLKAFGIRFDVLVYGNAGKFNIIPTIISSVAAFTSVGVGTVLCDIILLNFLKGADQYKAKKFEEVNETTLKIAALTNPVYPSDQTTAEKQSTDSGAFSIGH

| SMILES | IC50 |
| --- | --- |
| COc1ccccc1C1C(S(=O)(=O)C(C)C)=C(O)C(=O)N1c1ccc(-c2ccc(C)o2)cc1 (stereo not shown) [Compound I-467] | 286 nM |
| COc1ccc(S(=O)(=O)C2=C(O)C(=O)N(c3ccc(-c4noc(C)n4)cc3)C2C2CCCCC2)cc1 (stereo not shown) [Compound I-560] | 275 nM |
| Cc1ccc(-c2ccc(N3C(=O)C(O)=C(C(=O)C(C)C)C3c3ccccc3OCCO)cc2)s1 (stereo not shown) [Compound I-258] | 24 nM |
| Cc1cc(-c2ccc(N3C(=O)C(O)=C(C(=O)C(C)C)C3c3ccccc3C(=O)N(C)CCO)cc2)cs1 (stereo not shown) [Compound I-584] | 167 nM |
| CC(C)(C)C(=O)C1=C(O)C(=O)N(c2ccc(-c3cc[nH]c3)cc2)C1c1ccccc1OCCO (stereo not shown) [Compound I-154] | 192 nM |
| Cc1ccc(-c2ccc(N3C(=O)C(O)=C(C(=O)C(C)C)C3c3ccccc3OC(C)C)cc2)o1 (stereo not shown) [Compound I-396] | 7 nM |
| COc1ncccc1C1C(C(=O)C(C)(C)C)=C(O)C(=O)N1c1ccc(-c2cccs2)cc1 (stereo not shown) [Compound I-115] | 108 nM |
| Cc1ccc(-c2ccc(N3C(=O)C(O)=C(C(=O)CC(C)C)C3c3cccnc3C(N)=O)cc2)s1 (stereo not shown) [Compound I-572] | 171 nM |

Other lines, results leading:

| IC50 | SMILES |
| --- | --- |
| 322 nM | COc1ccccc1C1c2c(C(C)(C)C)n[nH]c2C(=O)N1c1ccc(C(C)=O)cc1 (stereo not shown) [II-155] |
| 2 nM | CNC(=O)c1ccccc1C1c2c(C(C)C)n[nH]c2C(=O)N1c1ccc(-c2ccsc2)cc1 (stereo not shown) [II-092] |
| 348 nM | COc1ccc(-c2n[nH]c3c2C(c2ccccc2OCCO)N(c2nc4cc(OC)ccc4s2)C3=O)cc1 (stereo not shown) [II-117] |
| 15 nM | COc1ccccc1C1c2c(C(C)(C)CO)n[nH]c2C(=O)N1c1ccc(-c2ccco2)cc1 (stereo not shown) [II-215] |
| 25 nM | COc1ncccc1C1c2c(C(C)(C)C)n[nH]c2C(=O)N1c1ccc(-c2cccs2)nc1 (stereo not shown) [II-270] |
